Molecular target: KRas G12D (Homo sapiens (Human), UniProt P01116, G12D)
Assay: KRas G12D Binding Assay (TR-FRET displacement of Cy5 labelled tracer)
Settings: GDP-loaded KRAS G12D (amino acids 1:169), 60 minute incubation at 22° C.
Method: After a 60 minute incubation at 22° C., the reaction was measured using a PerkinElmer EnVision multimode plate reader via TR-FRET dual wavelength detection, and the percent of control (POC) calculated using a ratiometric emission factor. […] The POC values were fit to a 4-parameter logistic curve and the IC50 value was determined as the concentration where the curve crosses 50 POC.
ND stands for “not determined.”

KRas G12D, sequence (P01116 other isoform, or with tags, fused parts or gaps G12D): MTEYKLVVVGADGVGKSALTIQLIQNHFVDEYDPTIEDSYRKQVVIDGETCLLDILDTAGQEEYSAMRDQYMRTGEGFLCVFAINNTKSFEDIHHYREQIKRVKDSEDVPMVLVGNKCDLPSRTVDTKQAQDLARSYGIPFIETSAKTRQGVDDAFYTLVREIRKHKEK

| Structure (SMILES) | IC50 [nM] |
| --- | --- |
| Fc1c(-c2c(C(F)(F)F)ccc3[nH]ncc23)ncc2c(N3C[C@H]4CC[C@@H](C3)N4)nc(OCC34CCCN3CCC4)nc12 [Example 344, 4-((1R,5S)-3,8-diazabicyclo[3.2.1]octan-3-yl)-8-fluoro-2-((tetrahydro-1H-pyrrolizin-7a(5H)-yl)methoxy)-7-(5-(trifluoromethyl)-1H-indazol-4-yl)pyrido[4,3-d]pyrimidine] | 10.9 |
| Fc1c(-c2cccc3cccc(OC(F)(F)F)c23)ncc2c(N3C[C@H]4CC[C@@H](C3)N4)nc(OCC34CCCN3CCC4)nc12 [Example 345, 4-((1R,5S)-3,8-diazabicyclo[3.2.1]octan-3-yl)-8-fluoro-2-((tetrahydro-1H-pyrrolizin-7a(5H)-yl)methoxy)-7-(8-(trifluoromethoxy)naphthalen-1-yl)pyrido[4,3-d]pyrimidine] | 10.6 |
| Fc1c(-c2cccc3cccc(OC(F)F)c23)ncc2c(N3C[C@H]4CC[C@@H](C3)N4)nc(OCC34CCCN3CCC4)nc12 [Example 346, 4-((1R,5S)-3,8-diazabicyclo[3.2.1]octan-3-yl)-7-(8-(difluoromethoxy)naphthalen-1-yl)-8-fluoro-2-((tetrahydro-1H-pyrrolizin-7a(5H)-yl)methoxy)pyrido[4,3-d]pyrimidine] | 10.5 |
| CC(C)c1ccccc1-c1ncc2c(N3CC4CCC(C3)N4)nc(OCC34CCCN3C[C@H](F)C4)nc2c1F (stereo partly drawn) [Example 348, 4-((1R,5S)-3,8-diazabicyclo[3.2.1]octan-3-yl)-8-fluoro-2-((2-fluorotetrahydro-1H-pyrrolizin-7a(5H)-yl)methoxy)-7-(2-isopropylphenyl)pyrido[4,3-d]pyrimidine] | 15.5 |
| Fc1c(-c2c(Cl)ccc3ccccc23)ncc2c(N3C[C@H]4CC[C@@H](C3)N4)nc(OCC34CCCN3CCC4)nc12 [Example 349, 4-((1R,5S)-3,8-diazabicyclo[3.2.1]octan-3-yl)-7-(2-chloronaphthalen-1-yl)-8-fluoro-2-((tetrahydro-1H-pyrrolizin-7a(5H)-yl)methoxy)pyrido[4,3-d]pyrimidine] | 561 |
| Oc1c(F)cc(F)c(-c2ncc3c(N4C[C@H]5CC[C@@H](C4)N5)nc(OCC45CCCN4CCC5)nc3c2F)c1F [Example 350, 3-(4-((1R,5S)-3,8-diazabicyclo[3.2.1]octan-3-yl)-8-fluoro-2-((tetrahydro-1H-pyrrolizin-7a(5H)-yl)methoxy)pyrido[4,3-d]pyrimidin-7-yl)-2,4,6-trifluorophenol] | 3820 |
| CO[C@H]1CN[C@H](COc2nc(N3C[C@H]4CC[C@@H](C3)N4)c3cnc(-c4cccc5cccc(Cl)c45)c(F)c3n2)C1 [Example 351, 4-((1R,5S)-3,8-diazabicyclo[3.2.1]octan-3-yl)-7-(8-chloronaphthalen-1-yl)-8-fluoro-2-(((2S,4R)-4-methoxypyrrolidin-2-yl)methoxy)pyrido[4,3-d]pyrimidine] | 94.8 |
| Fc1c(-c2cccc3cccc(Cl)c23)ncc2c(N3CC4CCC(C3)N4)nc(OC[C@@H]3CC(F)(F)CN3)nc12 [Example 352, 4-((1R,5S)-3,8-diazabicyclo[3.2.1]octan-3-yl)-7-(8-chloronaphthalen-1-yl)-2-(((S)-4,4-difluoropyrrolidin-2-yl)methoxy)-8-fluoropyrido[4,3-d]pyrimidine bis(2,2,2-trifluoroacetate)] | 845 |
| CN1C[C@H](NC(=O)c2ccc(C=O)cc2)C[C@H]1COc1nc(N2C[C@H]3CC[C@@H](C2)N3)c2cnc(-c3cccc4cccc(Cl)c34)c(F)c2n1 [Example 353, N-((3R,5S)-5-(((4-((1R,5S)-3,8-diazabicyclo[3.2.1]octan-3-yl)-7-(8-chloronaphthalen-1-yl)-8-fluoropyrido[4,3-d]pyrimidin-2-yl)oxy)methyl)-1-methylpyrrolidin-3-yl)-4-formylbenzamide] | 333 |
| CN1C[C@H](NC(=O)c2cccc(C=O)c2)C[C@H]1COc1nc(N2C[C@H]3CC[C@@H](C2)N3)c2cnc(-c3cccc4cccc(Cl)c34)c(F)c2n1 [Example 354, N-((3R,5S)-5-(((4-((1R,5S)-3,8-diazabicyclo[3.2.1]octan-3-yl)-7-(8-chloronaphthalen-1-yl)-8-fluoropyrido[4,3-d]pyrimidin-2-yl)oxy)methyl)-1-methylpyrrolidin-3-yl)-3-formylbenzamide] | 368 |
| CN1C[C@H](NC(=O)c2ccccc2C=O)C[C@H]1COc1nc(N2C[C@H]3CC[C@@H](C2)N3)c2cnc(-c3cccc4cccc(Cl)c34)c(F)c2n1 [Example 355, N-((3R,5S)-5-(((4-((1R,5S)-3,8-diazabicyclo[3.2.1]octan-3-yl)-7-(8-chloronaphthalen-1-yl)-8-fluoropyrido[4,3-d]pyrimidin-2-yl)oxy)methyl)-1-methylpyrrolidin-3-yl)-2-formylbenzamide] | 870 |
| CN1CC[C@@H](COc2nc(N3C[C@H]4CC[C@@H](C3)N4)c3cnc(-c4cccc5cccc(Cl)c45)c(F)c3n2)C1 [Example 356, 4-((1R,5S)-3,8-diazabicyclo[3.2.1]octan-3-yl)-7-(8-chloronaphthalen-1-yl)-8-fluoro-2-(((R)-1-methylpyrrolidin-3-yl)methoxy)pyrido[4,3-d]pyrimidine] | 87.2 |
| CN1CC[C@H](COc2nc(N3C[C@H]4CC[C@@H](C3)N4)c3cnc(-c4cccc5cccc(Cl)c45)c(F)c3n2)C1 [Example 357, 4-((1R,5S)-3,8-diazabicyclo[3.2.1]octan-3-yl)-7-(8-chloronaphthalen-1-yl)-8-fluoro-2-(((S)-1-methylpyrrolidin-3-yl)methoxy)pyrido[4,3-d]pyrimidine] | 438 |
| CN1CC[C@@H](Oc2nc(N3C[C@H]4CC[C@@H](C3)N4)c3cnc(-c4cccc5cccc(Cl)c45)c(F)c3n2)C1 [Example 358, 4-((1R,5S)-3,8-diazabicyclo[3.2.1]octan-3-yl)-7-(8-chloronaphthalen-1-yl)-8-fluoro-2-(((R)-1-methylpyrrolidin-3-yl)oxy)pyrido[4,3-d]pyrimidine] | 1980 |
| CN1CC[C@H](Oc2nc(N3C[C@H]4CC[C@@H](C3)N4)c3cnc(-c4cccc5cccc(Cl)c45)c(F)c3n2)C1 [Example 359, 4-((1R,5S)-3,8-diazabicyclo[3.2.1]octan-3-yl)-7-(8-chloronaphthalen-1-yl)-8-fluoro-2-(((S)-1-methylpyrrolidin-3-yl)oxy)pyrido[4,3-d]pyrimidine] | 1640 |
| COc1nc(N2C[C@H]3CC[C@@H](C2)N3)c2cnc(-c3cc(O)cc4cccc(Cl)c34)c(F)c2n1 [Example 360, 4-(4-((1R,5S)-3,8-diazabicyclo[3.2.1]octan-3-yl)-8-fluoro-2-methoxypyrido[4,3-d]pyrimidin-7-yl)-5-chloronaphthalen-2-ol] | 50.8 |
| CNC(C)COc1nc(N2CC3CCC(C2)N3)c2cnc(-c3cccc4cccc(Cl)c34)c(F)c2n1 (stereo not shown) [Example 363, bis(2,2,2-trifluoroacetate)] | 3930 |
| Oc1cc(-c2ncc3c(N4C[C@H]5CC[C@@H](C4)N5)nc(OCC45CCCN4CCC5)nc3c2F)c2c(F)cccc2c1 [Example 367, 4-(4-((1R,5S)-3,8-diazabicyclo[3.2.1]octan-3-yl)-8-fluoro-2-((tetrahydro-1H-pyrrolizin-7a(5H)-yl)methoxy)pyrido[4,3-d]pyrimidin-7-yl)-5-fluoronaphthalen-2-ol tris(2,2,2-trifluoroacetate)] | 0.7 |
| Fc1c(-c2ccccc2C(F)(F)F)ncc2c(N3C[C@H]4CC[C@@H](C3)N4)nc(OCC34CCCN3CCC4)nc12 [Example 370, 4-((1R,5S)-3,8-diazabicyclo[3.2.1]octan-3-yl)-8-fluoro-2-((tetrahydro-1H-pyrrolizin-7a(5H)-yl)methoxy)-7-(2-(trifluoromethyl)phenyl)pyrido[4,3-d]pyrimidine] | 86.1 |
| Oc1ccc(C(F)(F)F)c(-c2ncc3c(N4C[C@H]5CC[C@@H](C4)N5)nc(OCC45CCCN4CCC5)nc3c2F)c1 [Example 373, 3-(4-((1R,5S)-3,8-diazabicyclo[3.2.1]octan-3-yl)-8-fluoro-2-((tetrahydro-1H-pyrrolizin-7a(5H)-yl)methoxy)pyrido[4,3-d]pyrimidin-7-yl)-4-(trifluoromethyl)phenol] | 1.6 |
| C[C@H](N)COc1nc(N2CC3CCC(C2)N3)c2cnc(-c3cccc4cccc(Cl)c34)c(F)c2n1 [Example 374, (S)-1-((4-((1R,5S)-3,8-diazabicyclo[3.2.1]octan-3-yl)-7-(8-chloronaphthalen-1-yl)-8-fluoropyrido[4,3-d]pyrimidin-2-yl)oxy)propan-2-amine bis(2,2,2-trifluoroacetate)] | 348 |
| CN1CCc2cccc(Oc3nc(N4C[C@H]5CC[C@@H](C4)N5)c4cnc(-c5cccc6cccc(Cl)c56)c(F)c4n3)c2C1 [Example 378, 4-((1R,5S)-3,8-diazabicyclo[3.2.1]octan-3-yl)-7-(8-chloronaphthalen-1-yl)-8-fluoro-2-((2-methyl-1,2,3,4-tetrahydroisoquinolin-8-yl)oxy)pyrido[4,3-d]pyrimidine] | 6250 |
| CC(C)(N)COc1nc(N2CC3CCC(C2)N3)c2cnc(-c3cccc4cccc(Cl)c34)c(F)c2n1 [Example 387, bis(2,2,2-trifluoroacetate)] | 533 |
| Oc1cccc(OC(F)(F)F)c1-c1ncc2c(N3CC4CCC(C3)N4)nc(OC[C@@]34CCCN3C[C@H](F)C4)nc2c1F [Example 392, 2-(4-((1R,5S)-3,8-diazabicyclo[3.2.1]octan-3-yl)-8-fluoro-2-((2-fluorotetrahydro-1-H-pyrrolizin-7a(5H)-yl)methoxy)pyrido[4,3-d]pyrimidin-7-yl)-3-(trifluoromethoxy)phenol] | 208 |
| Oc1cc(-c2ncc3c(N4C[C@H]5CC[C@@H](C4)N5)nc(OCCC(F)(F)F)nc3c2F)c2c(Cl)cccc2c1 [Example 393, 4-(4-((1R,5S)-3,8-diazabicyclo[3.2.1]octan-3-yl)-8-fluoro-2-(3,3,3-trifluoropropoxy)pyrido[4,3-d]pyrimidin-7-yl)-5-chloronaphthalen-2-ol] | 76.3 |

Reference: US20230279025A1, “KRAS G12D INHIBITORS” (Mirati Therapeutics, Inc., priority 2020, published 2023)
